Test results published in article PMC6691788, “Design and synthesis of phthalazine-based compounds as potent anticancer agents with potential antiangiogenic activity via VEGFR-2 inhibition” (Journal of Enzyme Inhibition and Medicinal Chemistry, 2019).

Experiments:
K-562 = test: NCI 60 cell panel SRB screen; type: cell-based; conditions: Homo sapiens, K562; for GI50 / IC (TGI) / CC50: K-562, 5 log dose; for CC50: 48 h, read-out: LC50 (the source's name); for activity at 10 µM: K-562, single dose 10 μM, read-out: percent cell growth promotion
DU-145 = test: NCI 60 cell panel SRB screen; type: cell-based; conditions: Homo sapiens; for GI50 / IC (TGI) / CC50: DU-145, 5 log dose; for CC50: 48 h, read-out: LC50 (the source's name); for activity at 10 µM: DU-145, single dose 10 μM, read-out: percent cell growth promotion
VEGFR-2 tyrosine kinase = molecular target: T1, VEGFR-2 tyrosine kinase (Homo sapiens, UniProt P35968); test: In vitro VEGFR-2 tyrosine kinase assay (BPS Bioscience); type: biochemical; conditions: read-out: VEGFR-2 % inhibition; 10 μM concentration
T1 construct: purchased BPS Bioscience 40301
T1 sequence (P35968 20-1356): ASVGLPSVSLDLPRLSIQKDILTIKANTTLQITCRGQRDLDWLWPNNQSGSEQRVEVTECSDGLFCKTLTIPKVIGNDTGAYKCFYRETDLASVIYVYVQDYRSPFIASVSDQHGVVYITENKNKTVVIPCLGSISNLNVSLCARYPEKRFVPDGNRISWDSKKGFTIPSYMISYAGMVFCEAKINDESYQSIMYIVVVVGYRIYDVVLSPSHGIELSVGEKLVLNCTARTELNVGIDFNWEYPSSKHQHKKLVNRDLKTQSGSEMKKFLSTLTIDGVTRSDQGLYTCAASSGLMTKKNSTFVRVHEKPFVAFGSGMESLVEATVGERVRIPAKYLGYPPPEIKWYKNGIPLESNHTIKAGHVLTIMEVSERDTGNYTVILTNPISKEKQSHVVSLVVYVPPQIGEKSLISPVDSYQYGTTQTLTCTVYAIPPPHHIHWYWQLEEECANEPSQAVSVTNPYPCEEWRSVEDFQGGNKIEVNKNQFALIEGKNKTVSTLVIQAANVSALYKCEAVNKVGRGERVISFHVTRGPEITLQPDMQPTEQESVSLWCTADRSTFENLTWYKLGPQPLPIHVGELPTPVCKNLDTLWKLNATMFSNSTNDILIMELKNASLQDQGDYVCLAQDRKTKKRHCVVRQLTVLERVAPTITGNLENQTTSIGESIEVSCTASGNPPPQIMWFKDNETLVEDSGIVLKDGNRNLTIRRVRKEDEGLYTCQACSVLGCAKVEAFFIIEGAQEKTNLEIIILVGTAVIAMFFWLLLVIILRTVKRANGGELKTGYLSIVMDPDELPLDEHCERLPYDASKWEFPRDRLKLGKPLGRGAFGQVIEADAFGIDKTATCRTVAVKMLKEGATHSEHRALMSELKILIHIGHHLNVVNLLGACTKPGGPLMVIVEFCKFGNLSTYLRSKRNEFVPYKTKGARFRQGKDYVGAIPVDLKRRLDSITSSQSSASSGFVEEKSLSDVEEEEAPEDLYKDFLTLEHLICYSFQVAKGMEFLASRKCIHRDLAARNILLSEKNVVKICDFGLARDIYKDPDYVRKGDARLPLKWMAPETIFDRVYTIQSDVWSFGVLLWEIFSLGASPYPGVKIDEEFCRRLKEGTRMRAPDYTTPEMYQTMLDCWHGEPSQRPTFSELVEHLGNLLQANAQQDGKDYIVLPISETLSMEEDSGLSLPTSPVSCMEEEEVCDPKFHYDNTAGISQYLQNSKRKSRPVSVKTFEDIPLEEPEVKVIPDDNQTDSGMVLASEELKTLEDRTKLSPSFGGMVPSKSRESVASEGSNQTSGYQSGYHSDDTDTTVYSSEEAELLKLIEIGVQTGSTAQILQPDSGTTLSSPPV
Summary of the method: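 For IC50, ADP formation after a 30-min 30 °C reaction was detected by ADP-Glo luminescence in duplicate, blank-subtracted and fitted as log inhibitor versus normalised response. The 10 µM single-dose test instead measured remaining ATP (Kinase-Glo Plus) after 40 min at 30 °C with poly(Glu,Tyr) substrate, 10 μM ATP, pH 7.4, 1% DMSO.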

786-0 = test: NCI 60 cell panel SRB screen; type: cell-based; conditions: Homo sapiens
SW-620 = test: NCI 60 cell panel SRB screen; type: cell-based; conditions: Homo sapiens; for GI50 / IC (TGI) / CC50: SW-620, 5 log dose; for CC50: 48 h, read-out: LC50 (the source's name); for activity at 10 µM: SW-620, single dose 10 μM, read-out: percent cell growth promotion
OVCAR-3 = test: NCI 60 cell panel SRB screen; type: cell-based; conditions: Homo sapiens; for GI50 / IC (TGI) / CC50: OVCAR-3, 5 log dose; for CC50: 48 h, read-out: LC50 (the source's name); for activity at 10 µM: OVCAR-3, single dose 10 μM, read-out: percent cell growth promotion
M14 = test: NCI 60 cell panel SRB screen; type: cell-based; conditions: Homo sapiens; for GI50: M14; for IC (TGI): M14, read-out: TGI; for activity at 10 µM: M14, read-out: percent cell growth promotion; for CC50: M14, 5 log dose, 48 h, read-out: LC50 (the source's name)
UACC-62 = test: NCI 60 cell panel SRB screen; type: cell-based; conditions: for GI50 / activity at 10 µM / CC50: Homo sapiens; for GI50: UACC-62; for activity at 10 µM: UACC-62, read-out: percent cell growth promotion; for CC50 / TGI: UACC-62, 5 log dose; for CC50: 48 h, read-out: LC50 (the source's name)
RPMI-8226 = test: NCI 60 cell panel SRB screen; type: cell-based; conditions: Homo sapiens; for GI50 / IC (TGI) / CC50: RPMI-8226, 5 log dose; for CC50: 48 h, read-out: LC50 (the source's name); for activity at 10 µM: RPMI-8226, single dose 10 μM, read-out: percent cell growth promotion
A549/ATCC = test: NCI 60 cell panel SRB screen; type: cell-based; conditions: Homo sapiens; for GI50 / IC (TGI) / LC50 (concentration killing 50% of cells): 5 log dose; for LC50 (concentration killing 50% of cells): 48 h; for activity at 10 µM: single dose 10 μM, read-out: percent cell growth promotion
HCT-116 = test: NCI 60 cell panel SRB screen; type: cell-based; conditions: Homo sapiens; for GI50 / IC (TGI) / LC50 (lethal concentration 50%): HCT-116, 5 log dose; for LC50 (lethal concentration 50%): 48 h; for activity at 10 µM: HCT-116, single dose 10 μM, read-out: percent cell growth promotion
SF-295 = test: NCI 60 cell panel SRB screen; type: cell-based; conditions: Homo sapiens; for GI50 / IC (TGI) / CC50: SF-295, 5 log dose; for CC50: 48 h, read-out: LC50 (the source's name); for activity at 10 µM: SF-295, single dose 10 μM, read-out: percent cell growth promotion
UACC-257 = test: NCI 60 cell panel SRB screen; type: cell-based; conditions: Homo sapiens; for GI50: UACC-257; for IC (TGI): UACC-257, read-out: TGI; for activity at 10 µM: UACC-257, read-out: percent cell growth promotion
HOP-62 = test: NCI 60 cell panel SRB screen; type: cell-based; conditions: Homo sapiens; for GI50 / IC (TGI) / CC50: HOP-62, 5 log dose; for CC50: 48 h, read-out: LC50 (the source's name); for activity at 10 µM: HOP-62, single dose 10 μM, read-out: percent cell growth promotion
OVCAR-8 = test: NCI 60 cell panel SRB screen; type: cell-based; conditions: Homo sapiens; for GI50 / IC (TGI) / CC50: OVCAR-8, 5 log dose; for CC50: 48 h, read-out: LC50 (the source's name); for activity at 10 µM: OVCAR-8, single dose 10 μM, read-out: percent cell growth promotion
MALME-3M = test: NCI 60 cell panel SRB screen; type: cell-based; conditions: Homo sapiens; for GI50 / IC (TGI) / activity at 10 µM: Malme-3M; for IC (TGI): read-out: TGI; for activity at 10 µM: read-out: percent cell growth promotion; for CC50: MALME-3M, 5 log dose, 48 h, read-out: LC50 (the source's name)
CCRF-CEM = test: NCI 60 cell panel SRB screen; type: cell-based, human; conditions: for GI50 / CC50 / activity at 10 µM: Homo sapiens; for CC50: 48 h, read-out: LC50 (the source's name); for activity at 10 µM: single dose 10 μM, read-out: percent cell growth promotion
SR = test: NCI 60 cell panel SRB screen; type: cell-based; conditions: Homo sapiens; for GI50 / IC (TGI) / CC50: 5 log dose; for CC50: 48 h, read-out: LC50 (the source's name); for activity at 10 µM: single dose 10 μM, read-out: percent cell growth promotion
SK-MEL-5 = test: NCI 60 cell panel SRB screen; type: cell-based; conditions: Homo sapiens; for GI50: SK-MEL-5; for IC (TGI): SK-MEL-5, read-out: TGI; for activity at 10 µM: SK-MEL-5, read-out: percent cell growth promotion; for CC50: SK-MEL-5, 5 log dose, 48 h, read-out: LC50 (the source's name)
SF-268 = test: NCI 60 cell panel SRB screen; type: cell-based; conditions: Homo sapiens; for GI50 / IC (TGI) / CC50: SF-268, 5 log dose; for CC50: 48 h, read-out: LC50 (the source's name); for activity at 10 µM: SF-268, single dose 10 μM, read-out: percent cell growth promotion

## Cc1nnc(Nc2ccc(NC(=O)Nc3ccc(Cl)cc3)cc2)c2ccccc12 [Compound 6e, 1–(4-Chlorophenyl)-3–(4-(4-methylphthalazin-1-ylamino)phenyl)urea]
K-562
  GI50: 2.2 µM
  IC (TGI): 4.67 µM
  CC50: 9.92 µM
  activity at 10 µM: -16.7%
DU-145
  GI50: 4.77 µM
  IC (TGI): 19.5 µM
  CC50: 66.9 µM
  activity at 10 µM: 57.8%
VEGFR-2 tyrosine kinase
  inhibition at 10 µM: 19%
786-0; 786-0, 5 log dose
  GI50: 1.71 µM
  IC (TGI): 3.34 µM
786-0; 786-0, 5 log dose, 48 h, read-out: LC50 (the source's name)
  CC50: 6.55 µM
786-0; 786-0, single dose 10 μM, read-out: percent cell growth promotion
  activity at 10 µM: -27.9%
SW-620
  GI50: 2.15 µM
  IC (TGI): 4.76 µM
  CC50: 11.9 µM
  activity at 10 µM: 20.3%
OVCAR-3
  GI50: 1.87 µM
  IC (TGI): 3.99 µM
  CC50: 8.47 µM
  activity at 10 µM: 44.4%
M14
  GI50: 1.76 µM
  IC (TGI): 3.57 µM
  activity at 10 µM: 37.3%
  CC50: 7.27 µM
UACC-62
  GI50: 1.75 µM
  activity at 10 µM: -34.4%
  CC50: 7.35 µM
  TGI: 3.59 µM
RPMI-8226
  GI50: 2.6 µM
  IC (TGI): 6.48 µM
  CC50: > 100 µM
  activity at 10 µM: -11.9%
A549/ATCC
  GI50: 3.24 µM
  IC (TGI): 8.59 µM
  LC50 (concentration killing 50% of cells): 37.9 µM
  activity at 10 µM: 26.4%
HCT-116
  GI50: 1.86 µM
  IC (TGI): 3.59 µM
  LC50 (lethal concentration 50%): 6.93 µM
  activity at 10 µM: 7.67%
SF-295
  GI50: 2.04 µM
  IC (TGI): 4.21 µM
  CC50: 8.68 µM
  activity at 10 µM: 4.8%
UACC-257
  GI50: 2.39 µM
  IC (TGI): 5.3 µM
  activity at 10 µM: 73.8%
HOP-62
  GI50: 1.81 µM
  IC (TGI): 3.7 µM
  CC50: 7.56 µM
  activity at 10 µM: 44.2%
OVCAR-8
  GI50: 3.35 µM
  IC (TGI): 9.32 µM
  CC50: 47.4 µM
  activity at 10 µM: 31.4%
MALME-3M
  GI50: 2.17 µM
  IC (TGI): 4.79 µM
  activity at 10 µM: -9.9%
  CC50: 20 µM
CCRF-CEM; 5 log dose
  TGI: 5.99 µM
  GI50: 2.38 µM
  CC50: > 100 µM
CCRF-CEM
  activity at 10 µM: 11%
SR
  GI50: 2.56 µM
  IC (TGI): 9.55 µM
  CC50: > 100 µM
  activity at 10 µM: -3.51%
SK-MEL-5
  GI50: 1.85 µM
  IC (TGI): 3.5 µM
  activity at 10 µM: 52.3%
  CC50: 6.65 µM
SF-268
  GI50: 2.57 µM
  IC (TGI): 7.17 µM
  CC50: 47 µM
  activity at 10 µM: 48.7%

## O=C(Nc1ccc(Cl)cc1)Nc1ccc(Oc2nncc3ccccc23)cc1 [Compound 7b, 1–(4-Chlorophenyl)-3–(4-(phthalazin-1-yloxy)phenyl)urea]
K-562
  GI50: 0.37 µM
  IC (TGI): > 100 µM
  CC50: > 100 µM
  activity at 10 µM: 5.58%
DU-145
  GI50: 0.73 µM
  IC (TGI): 2.08 µM
  CC50: 4.88 µM
  activity at 10 µM: 11.2%
VEGFR-2 tyrosine kinase
  inhibition at 10 µM: 13%
786-0; 786-0, 5 log dose
  GI50: 0.87 µM
  IC (TGI): 2.35 µM
SW-620
  GI50: 0.34 µM
  IC (TGI): 1.06 µM
  CC50: 30.3 µM
  activity at 10 µM: -30.1%
OVCAR-3
  GI50: 0.35 µM
  IC (TGI): 1.15 µM
  CC50: 3.95 µM
  activity at 10 µM: -62.8%
M14
  GI50: 1.12 µM
  IC (TGI): 3.16 µM
  activity at 10 µM: 7.3%
  CC50: 8.93 µM
UACC-62
  GI50: 1.08 µM
  activity at 10 µM: -14.3%
  CC50: 14 µM
  TGI: 3.46 µM
RPMI-8226
  GI50: 0.48 µM
  IC (TGI): 4.58 µM
  CC50: > 100 µM
  activity at 10 µM: -0.08%
A549/ATCC
  GI50: 2.81 µM
  IC (TGI): 11.5 µM
  LC50 (concentration killing 50% of cells): > 100 µM
  activity at 10 µM: 40%
HCT-116
  GI50: 0.32 µM
  IC (TGI): 1.2 µM
  LC50 (lethal concentration 50%): 4.65 µM
  activity at 10 µM: -56.9%
SF-295
  GI50: 2.54 µM
  IC (TGI): 6.27 µM
  CC50: 36.9 µM
  activity at 10 µM: 40.7%
UACC-257
  GI50: 0.15 µM
  IC (TGI): 4.04 µM
  activity at 10 µM: 34.4%
UACC-257; UACC-257, 5 log dose, 48 h, read-out: LC50 (the source's name)
  CC50: 12.9 µM
HOP-62
  GI50: 1.09 µM
  IC (TGI): 4.32 µM
  CC50: 47.7 µM
  activity at 10 µM: 26.7%
OVCAR-8
  GI50: 1.1 µM
  IC (TGI): 13.6 µM
  CC50: > 100 µM
  activity at 10 µM: 19.4%
MALME-3M
  GI50: 0.44 µM
  IC (TGI): 2.31 µM
  activity at 10 µM: 0.78%
  CC50: 9.69 µM
CCRF-CEM; 5 log dose
  GI50: 0.32 µM
  CC50: > 100 µM
CCRF-CEM
  activity at 10 µM: 8.7%
SR
  GI50: 0.4 µM
  IC (TGI): > 100 µM
  CC50: > 100 µM
  activity at 10 µM: 2.64%
SK-MEL-5
  GI50: 1.02 µM
  IC (TGI): 2.81 µM
  activity at 10 µM: -43.3%
  CC50: 6.56 µM
SF-268
  GI50: 1.35 µM
  IC (TGI): 7.21 µM
  CC50: 70.2 µM
  activity at 10 µM: 12.6%
